According to patent US12252524B2, “GIP/GLP1 co-agonist compounds” (Eli Lilly and Company, priority 2018, dated 2025):
Numbered stars: 1 amine (or outer) side, 2 acyl side, 3 side chain; on linkers, the order of the positions; unused ones are H or OH. Square brackets hold non-standard residues; d marks the D form. Side chains are listed from the residue outwards. Peptide text beside a SMILES is read from it. * marks the point of attachment. C20 diacid = O=C(O)CCCCCCCCCCCCCCCCCCC(=O)*; C18 diacid = O=C(O)CCCCCCCCCCCCCCCCC(=O)*; γGlu = O=C(O)[C@H](CCC(=O)[*:2])N[*:1]; αMeY = C[C@](N)(Cc1ccc(O)cc1)C(=O)O; αMeL = CC(C)C[C@](C)(N)C(=O)O; Orn = NCCC[C@H](N)C(=O)O; AEEA = NCCOCCOCC(=O)O; Aib = CC(C)(N)C(=O)O

Key:
[1] = target: T1, human GLP-1R (Homo sapiens, UniProt P43220); assay: [125I]-GLP-1 binding (SPA), human GLP-1 receptor; parameters: expressed in transfected cells; crude membranes; conditions: read-out: hGLP1R Ki, (nM) (SEM, n)
T1 sequence (P43220 24-463): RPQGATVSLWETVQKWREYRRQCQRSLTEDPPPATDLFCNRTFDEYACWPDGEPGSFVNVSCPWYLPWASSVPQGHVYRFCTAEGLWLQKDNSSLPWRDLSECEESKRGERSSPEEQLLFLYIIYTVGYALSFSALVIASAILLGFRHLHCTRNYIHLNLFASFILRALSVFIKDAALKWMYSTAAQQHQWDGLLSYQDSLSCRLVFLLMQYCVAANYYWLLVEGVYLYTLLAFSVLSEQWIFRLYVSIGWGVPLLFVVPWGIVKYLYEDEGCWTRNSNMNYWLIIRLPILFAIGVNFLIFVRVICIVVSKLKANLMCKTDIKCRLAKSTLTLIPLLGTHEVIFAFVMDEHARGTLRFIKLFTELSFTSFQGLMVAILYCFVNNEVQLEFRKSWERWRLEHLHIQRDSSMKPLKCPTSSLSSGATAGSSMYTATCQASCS
Outline: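 Frozen cell pellets are lysed on ice in hypotonic Tris buffer, pH 7.5, homogenized, and centrifuged to a membrane pellet resuspended at about 1 to 3 mg/mL. Binding is then measured in HEPES-based buffer at pH 7.4, and curves are fitted to give IC50 and Ki.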

[2] = in vitro
Experimental: The stability of peptides are compared in 1% rat small intestinal fluid (rSIF). The amount of intact peptide is measured for a sample peptide at 0, 3, 15, and 30 minutes to assess proteolytic stability. The amount of intact peptide for a sample peptide is measured in 90% pig small intestinal fluid (pSIF) at 0, 30, 45, and 60 minutes to assess the proteolytic stability.
Peptides are prepared at 0.4 mg/mL in 50 mM Tris pH8.0. […] The mixture is incubated at 37° C. at 150 rpm. Thirty μL of each sample are removed and placed into a new tube before the rSIF is added and at […]. At each time point, the reaction was quenched by 1% TFA in 50% ACN at 1:1. The samples are diluted 100 times using dilution buffer (1:1 of 1% TFA in 50% ACN: 50 mM Tris pH8) and ready for analysis using mass spectrometry (MS).
The data analysis is performed using MassLynx.

[3] = target: human GLP-1 receptor (GLP-1R) (Homo sapiens, UniProt P43220); assay: cAMP pharmacological functional assay in presence of casein, hGLP-1R; type: cell-based; conditions: HEK293 cells expressing hGLP-1R, 0.1% Casein, geometric mean; read-out: hGLP1R cAMP Rel EC50 nM (SEM, n)
human GLP-1 receptor (GLP-1R), sequence (P43220 24-463): as above

[4] = target: T2, gastric inhibitory peptide receptor (GIPR) (Homo sapiens, UniProt P48546); assay: cAMP pharmacological functional assay in presence of casein, hGIPR; type: cell-based; conditions: HEK293 cells expressing hGIPR, 0.1% Casein, geometric mean; read-out: hGIPR cAMP Rel EC50 nM (SEM, n)
T2 sequence (P48546 22-466): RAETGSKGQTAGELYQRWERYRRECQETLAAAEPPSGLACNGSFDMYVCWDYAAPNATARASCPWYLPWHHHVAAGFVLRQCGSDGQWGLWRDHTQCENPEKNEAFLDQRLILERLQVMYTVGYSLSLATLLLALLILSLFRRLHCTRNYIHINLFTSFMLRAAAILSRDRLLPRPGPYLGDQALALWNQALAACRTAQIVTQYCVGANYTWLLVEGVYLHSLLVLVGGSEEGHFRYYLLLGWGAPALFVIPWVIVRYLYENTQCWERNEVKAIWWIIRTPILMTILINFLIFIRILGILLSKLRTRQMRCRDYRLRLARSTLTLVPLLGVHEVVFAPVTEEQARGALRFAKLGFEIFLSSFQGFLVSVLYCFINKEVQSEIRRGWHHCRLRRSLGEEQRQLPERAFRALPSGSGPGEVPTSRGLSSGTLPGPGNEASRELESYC

[5] = target: T3, human Gcg receptor (Homo sapiens, UniProt P47871); assay: [125I]-Glucagon binding (SPA), human Gcg receptor; conditions: read-out: hGLcgR Ki, nM (SEM, n)
T3 construct: expressed in transfected cells; crude membranes
T3 sequence (P47871 26-477): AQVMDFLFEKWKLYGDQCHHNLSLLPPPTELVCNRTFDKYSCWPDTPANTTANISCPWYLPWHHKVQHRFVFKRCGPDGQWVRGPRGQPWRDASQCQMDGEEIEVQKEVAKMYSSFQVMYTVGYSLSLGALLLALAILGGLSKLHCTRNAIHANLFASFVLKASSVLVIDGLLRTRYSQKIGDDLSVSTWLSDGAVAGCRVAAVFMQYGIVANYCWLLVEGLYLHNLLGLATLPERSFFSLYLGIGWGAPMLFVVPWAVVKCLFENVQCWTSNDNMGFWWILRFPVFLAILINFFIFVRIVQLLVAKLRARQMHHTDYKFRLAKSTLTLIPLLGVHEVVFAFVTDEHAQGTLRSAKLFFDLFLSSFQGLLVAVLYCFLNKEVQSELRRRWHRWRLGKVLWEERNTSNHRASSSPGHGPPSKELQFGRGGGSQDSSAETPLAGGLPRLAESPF
Outline: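 Cell pellets were lysed in hypotonic Tris buffer, pH 7.5, homogenized, and spun at low then high speed to give crude membranes. Ki was derived from the fitted IC50.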

[6] = target: T4, human GIP receptor (Homo sapiens, UniProt P48546); assay: [125I]-GIP binding (SPA), human GIP receptor; conditions: read-out: hGIPR Ki, nM (SEM, n)
T4 construct: expressed in transfected cells; crude membranes
T4 sequence (P48546 22-466): T2 sequence (P48546 22-466)

[7] = target: T1, human GLP-1R; assay: GLP-1R CHO cell β-arrestin recruitment assay; type: cell-based; parameters: host or cells: CHO-K1 PathHunter cells, assay-ready frozen; conditions: for EC50: CHO-K1 cells, PathHunter β-arrestin-2 recruitment, 0.1% casein, read-out: hGLP1R B-Arrestin2 Rel EC50 uM (SEM, n); for hGLP1R B-Arrestin2 % Top: normalized to GLP-1 maximum control
Outline: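 PathHunter CHO-K1 cells with ProLink-tagged human GLP-1R and enzyme-acceptor-tagged β-arrestin-2 treated with serially diluted peptides in assay buffer containing 0.1% hydrolyzed casein, 90 min at 37 °C.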

[8] = target: T1, human GLP-1R; assay: GLP-1R HEK293 cell membrane [35S]GTPγS binding assay; type: biochemical; parameters: expressed in transfected cells; host or cells: HEK293 cells expressing human GLP-1R; membranes; conditions: HEK293 cell membranes expressing human GLP-1R, [35S]GTPγS binding; read-out: hGLP1R GTPgS Rel EC50 nM (SEM, n)
Outline: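 Membranes from HEK293 cells expressing the receptor incubated with peptide and […] [35S]GTPγS in HEPES pH 7.4 buffer with NaCl, MgCl2, saponin and BSA, 30 min at room temperature. Gαs-bound label captured by anti-Gαs antibody/SPA beads and counted; EC50 from four-parameter logistic fit.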

[9] = tested on: CD8+ T cell depleted peripheral blood mononuclear cells; assay: CD4+ T cell assay for potential clinical immunogenicity; conditions: Examples 10 uM, KLH 0.33 μM, 7 days
Experimental: The purpose of this study is to determine the relative potential for clinical immunogenicity of a compound.
CD8+ T cell depleted peripheral blood mononuclear cells are prepared and labeled with Carboxyfluorescein Diacetate Succinimidyl Ester (CFSE, Invitrogen) from a cohort of 10 healthy donors. […] Cultures are incubated for 7 days at 37° C. with 5% CO2. On day 7, samples are analyzed by flow cytometry using High Throughput Sampler (HTS). Data is analyzed using FlowJo® Software (FlowJo, LLC, TreeStar).

[10] = rat, real gastrointestinal fluid or homogenate, pH 8

CC[C@H](C)[C@H](NC(=O)[C@H](CC(C)C)NC(=O)[C@H](Cc1ccc(O)cc1)NC(=O)[C@H](CCC(=O)O)NC(=O)[C@@H](NC(=O)[C@H](Cc1ccccc1)NC(=O)[C@H](C)NC(=O)C(C)(C)NC(=O)[C@H](CCC(N)=O)NC(=O)[C@H](C)NC(=O)[C@H](CCCCNC(=O)COCCOCCNC(=O)COCCOCCNC(=O)CC[C@H](NC(=O)CCCCCCCCCCCCCCCCCCC(=O)O)C(=O)O)NC(=O)[C@H](CCCCN)NC(=O)[C@H](CC(=O)O)NC(=O)[C@H](CC(C)C)NC(=O)[C@](C)(CC(C)C)NC(=O)[C@@H](NC(=O)[C@H](CO)NC(=O)[C@H](Cc1ccc(O)cc1)NC(=O)[C@H](CC(=O)O)NC(=O)[C@H](CO)NC(=O)[C@@H](NC(=O)[C@](C)(Cc1ccccc1)NC(=O)[C@@H](NC(=O)CNC(=O)[C@H](CCC(=O)O)NC(=O)C(C)(C)NC(=O)[C@@H](N)Cc1ccc(O)cc1)[C@@H](C)O)[C@@H](C)O)[C@@H](C)CC)[C@@H](C)CC)C(=O)N[C@@H](CCC(=O)O)C(=O)NCC(=O)NCC(=O)N1CCC[C@H]1C(=O)N[C@@H](CO)C(=O)N[C@@H](CO)C(=O)NCC(=O)N[C@@H](C)C(=O)N1CCC[C@H]1C(=O)N1CCC[C@H]1C(=O)N1CCC[C@H]1C(=O)N[C@@H](CO)C(N)=O [Example 69]
Ki [1]: 1.22 nM | percentage of peptide not cleaved using rSIF [2]: 100% | remaining at 0.05 h, 0.4 mg/mL [2, 10]: 2.2% | remaining at 0.25 h, 0.4 mg/mL [2, 10]: 0% | remaining at 1 h, 0.4 mg/mL [2, 10]: 0% | EC50 [3]: 0.0844 nM | EC50 [4]: 0.0712 nM | Ki [5]: 22.1 nM | Ki [6]: 0.03 nM

CC[C@H](C)[C@H](NC(=O)[C@H](CC(C)C)NC(=O)[C@H](Cc1ccc(O)cc1)NC(=O)[C@@H](CCC(=O)O)NC(=O)[C@@H](NC(=O)[C@H](Cc1ccccc1)NC(=O)[C@H](C)NC(=O)C(C)(C)NC(=O)[C@H](CCC(N)=O)NC(=O)[C@H](C)NC(=O)[C@H](CCCCNC(=O)COCCOCCNC(=O)COCCOCCNC(=O)CC[C@H](NC(=O)CCCCCCCCCCCCCCCCC(=O)O)C(=O)O)NC(=O)[C@H](CCCN)NC(=O)[C@H](CC(=O)O)NC(=O)[C@H](CC(C)C)NC(=O)[C@](C)(CC(C)C)NC(=O)[C@@H](NC(=O)[C@H](CO)NC(=O)[C@H](Cc1ccc(O)cc1)NC(=O)[C@H](CC(=O)O)NC(=O)[C@H](CO)NC(=O)[C@@H](NC(=O)[C@H](Cc1ccccc1)NC(=O)[C@@H](NC(=O)CNC(=O)[C@H](CCC(=O)O)NC(=O)C(C)(C)NC(=O)[C@H](N)Cc1ccc(O)cc1)[C@@H](C)O)[C@@H](C)O)[C@@H](C)CC)[C@@H](C)CC)C(=O)N[C@@H](C)C(=O)NCC(=O)NCC(=O)N1CCC[C@H]1C(=O)N[C@@H](CO)C(=O)N[C@@H](CO)C(=O)NCC(=O)N[C@@H](C)C(=O)N1CCC[C@H]1C(=O)N1CCC[C@H]1C(=O)N1CCC[C@H]1C(=O)N[C@@H](CO)C(N)=O [Example 363] (H-[dY][Aib]EGTFTSDYSI[αMeL]LD[Orn]K([AEEA-AEEA-γGlu-C18 diacid])AQ[Aib]AFI[dE]YLIAGGPSSGAPPPS-NH2)
Ki [1]: 3.89 nM | EC50 [3]: 0.208 nM | EC50 [4]: 0.145 nM | Ki [5]: > 1020 nM | Ki [6]: 0.17 nM | EC50 [7]: 0.135 µM | hGLP1R B-Arrestin2 % Top [7]: 22.1% | EC50 [8]: 0.943 nM

CC[C@H](C)[C@H](NC(=O)[C@H](CC(C)C)NC(=O)[C@](C)(Cc1ccc(O)cc1)NC(=O)[C@H](CCC(=O)O)NC(=O)[C@@H](NC(=O)[C@H](Cc1ccccc1)NC(=O)[C@H](CCC(=O)O)NC(=O)C(C)(C)NC(=O)[C@H](CCC(N)=O)NC(=O)[C@H](C)NC(=O)[C@H](CCCCNC(=O)COCCOCCNC(=O)COCCOCCNC(=O)CC[C@H](NC(=O)CCCCCCCCCCCCCCCCCCC(=O)O)C(=O)O)NC(=O)[C@H](CCCCN)NC(=O)[C@H](CC(=O)O)NC(=O)[C@H](CC(C)C)NC(=O)[C@](C)(CC(C)C)NC(=O)[C@@H](NC(=O)[C@H](CO)NC(=O)[C@H](Cc1ccc(O)cc1)NC(=O)[C@H](CC(=O)O)NC(=O)[C@H](CO)NC(=O)[C@@H](NC(=O)[C@H](Cc1ccccc1)NC(=O)[C@@H](NC(=O)CNC(=O)[C@H](CCC(=O)O)NC(=O)C(C)(C)NC(=O)[C@@H](N)Cc1ccc(O)cc1)[C@@H](C)O)[C@@H](C)O)[C@@H](C)CC)[C@@H](C)CC)C(=O)N[C@@H](C)C(=O)NCC(=O)NCC(=O)N1CCC[C@H]1C(=O)N[C@@H](CO)C(=O)N[C@@H](CO)C(=O)NCC(=O)N[C@@H](C)C(=O)N1CCC[C@H]1C(=O)N1CCC[C@H]1C(=O)N1CCC[C@H]1C(=O)N[C@@H](CO)C(N)=O [Example 367] (H-Y[Aib]EGTFTSDYSI[αMeL]LDKK([AEEA-AEEA-γGlu-C20 diacid])AQ[Aib]EFIE[αMeY]LIAGGPSSGAPPPS-NH2)
Ki [1]: 0.809 nM | EC50 [3]: 0.0641 nM | EC50 [4]: 0.0179 nM | Ki [5]: 777 nM | Ki [6]: 0.0282 nM | EC50 [7]: 0.00666 µM | hGLP1R B-Arrestin2 % Top [7]: 70.6% | EC50 [8]: 0.289 nM

keyhole limpet hemocyanin [KLH, reference compound]
% Donor Response (CD4+ T cell response) [9]: 100% | Median Response Strength in positive donors (CDI) [9]: 391 CDI
